Assay results published in patent US20230406883A1, “COMPOUNDS AND THEIR USE IN TREATMENT OF TACHYKININ RECEPTOR MEDIATED DISORDERS” (Embark Biotech ApS, priority 2020, published 2023).
Numbered stars: 1 amine (or outer) side, 2 acyl side, 3 side chain; on linkers, the order of the positions; unused ones are H or OH. Square brackets hold non-standard residues; d marks the D form. Peptide text beside a SMILES is read from it. * marks the point of attachment. C18 diacid = O=C(O)CCCCCCCCCCCCCCCCC(=O)*; γGlu = O=C(O)[C@H](CCC(=O)[*:2])N[*:1]; NMeL = CN[C@@H](CC(C)C)C(=O)O; hSer = N[C@@H](CCO)C(=O)O; Nle = CCCC[C@H](N)C(=O)O; AEEA = NCCOCCOCC(=O)O

Experiments:
[1] = Loperamide-induced dysfunctional voiding test; type: in vivo; settings: lean wild-type mice, Loperamide 5 mg/kg, compound 130, 260, 325 nmol/kg s.c.
Description: Dysfunctional voiding test: To investigate the effect on dysfunctional voiding, constipation was induced in lean wild-type, male and female, mice using Loperamide (5 mg/kg). 30 minutes after gavage, mice were subcutaneously dosed with either vehicle, 130, 260 and for males also 325 nmol/kg of EB344. 6 hours post Loperamide gavage, mice were removed from the cage and number of feces pellets were counted.

[2] = Intraperitoneal insulin tolerance test (ipITT) in DIO mice; type: in vivo; settings: 325 nmol/kg s.c. once, test 24 hours after treatment
Description: (§1) Insulin tolerance test: The effect on insulin tolerance was determined using intraperitoneal insulin tolerance test (ipITT) 24 hours after single subcutaneous injection of NK2R-selective analogue in DIO mice. At day of experimentation, mice were fasted two hours prior to receiving 1.5 U/kg insulin diluted in saline solution (0.2 mL/kg) by intraperitoneal injection. Change in glucose was monitored using glucometer.

[3] = Intraperitoneal glucose tolerance test (ipGTT) in DIO mice; type: in vivo; settings: 325 nmol/kg s.c. once, test 24 hours after treatment
Description: as §1, with “Glucose” for “Insulin”, “glucose” for “insulin”, “(ipGTT)” for “(ipITT)”, “four” for “two”, “1 g/kg glucose” for “1.5 U/kg insulin”, “([…]” for “(0.2”

[4] = target: T1, hNK2R (Homo sapiens, UniProt P21452); experiment: Indirect human serum albumin binding by IP3 assay, 0.2% ovalbumin vs 1% HSA; type: cell-based; settings: for hNK2R, Albumin binding Efficacy (%)-ovalbumin: 0.2% ovalbumin; for hNK2R, Albumin binding Efficacy (%)-1% human serum albumin / EC50: 1% HSA; for EC50: read-out: hNK2R, Albumin binding EC50 (nM)-1% human serum albumin
T1 construct: host or cells: COS-7
T1 sequence (P21452 1-398): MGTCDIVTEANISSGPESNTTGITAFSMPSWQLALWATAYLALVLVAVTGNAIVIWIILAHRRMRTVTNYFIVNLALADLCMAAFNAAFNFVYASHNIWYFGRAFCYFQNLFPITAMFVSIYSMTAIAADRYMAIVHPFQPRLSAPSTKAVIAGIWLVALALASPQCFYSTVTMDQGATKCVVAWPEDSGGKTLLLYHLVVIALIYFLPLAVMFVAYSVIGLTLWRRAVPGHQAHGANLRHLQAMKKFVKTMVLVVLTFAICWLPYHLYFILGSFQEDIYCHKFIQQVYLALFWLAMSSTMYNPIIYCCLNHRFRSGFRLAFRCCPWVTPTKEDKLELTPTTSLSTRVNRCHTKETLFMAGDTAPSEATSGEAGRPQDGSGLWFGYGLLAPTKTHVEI
Description: Agonist-induced G-protein coupled receptor (GPCR) activation was measured by an Inositol-1,4,5-Trisphosphate [^3H] Radioreceptor Assay (IPs Assay). Assays were carried out using COS-7 cells transiently transfected by calcium phosphate transfection with a vector pcDNA3.1(+) encoding one of the indicated receptors (Genscript). Briefly, DNA mixed with CaCl2 (2 M) and TE-buffer (10 mM Tris-HCl, 1 mM EDTA, pH 7.5) was dropwise added to 2×HBS (50 mM HEPES, 280 mM NaCl, 1.5 mM NaH2PO4, pH 7.2) and incubated for 45 min at room temperature (22±2° C.). The mixture and a final concentration of 100 μM Chloroquine were added to the cells and left to incubate for 5 hours at 37° C. under standard cell culture conditions (10% CO2) before changing medium to fresh medium containing 5 μl/mL Myo-[2-^3H(N)]-inositol (labeling medium).
The indirect HSA binding IP3 assay takes advantage of the tachykinin receptors' ability to induce production of the inositol trisphosphate (IP3) second messenger upon agonist (ligand) binding on receptor expressing cells following an initial ^3H-inositol labeling period. The assay relies on the assumption that high peptide HSA binding will result in low receptor-mediated production of the second messenger IP3. Thus, the assay is an indirect assessment HSA binding.
Assay solutions used: Wash buffer (HBSS), Assay buffer 0.2% OvAlb (HBSS+10 mM LiCl and 0,2% w/v ovalbumin) or Assay buffer 1% HSA (HBSS+10 mM LiCl and 1% w/v HSA), Lysis buffer (10 mM formic acid), and SPA YSI beads (12.5 mg/ml in H2O). The assay was performed the day after transfection. Briefly, labelling medium was aspirated, and plates were washed ×1 in wash buffer before adding 100 μl assay buffer 0.2% OvAlb or assay buffer 1% HSA, pre-incubated for 30 min followed by 120 min incubation with agonist, both at 37° C. After incubation, plates were immediately placed on ice and the incubation medium was aspirated and 40 μl of 10 mM formic acid per well was added. Plates were incubated for at least 30 min on ice. 60 μl (1 mg/well) SPA YSI beads/well was pipetted into a solid white 96 wells plate and 35 μl of the lysis solution was transferred to the plate before covering plates with seal cover and shaking for 10 min. (max speed). Centrifuge plates and leave for 8 hours at room temperature before counting the plates in a MicroBeta plate counter (Perkin Elmer).

[5] = Energy expenditure screening by indirect calorimetry in diet-induced obese mice; type: in vivo; settings: DIO mice, 0.5 mg/kg s.c., increase over vehicle
Description: Indirect calorimetry was used to evaluate the ability of individual peptide analogues to dose-dependently increase energy expenditure (EE) we used metabolic cages and indirect calorimetry measured by the Promethion system. To this end, oxygen consumption was used as a surrogate measure for EE. Substrate preference (fat or carbohydrate) was evaluated using the respiratory exchange ratio (RER). In parallel, behavioral information such as walking distance and water and food intake were recorded.
Prior to experimentation, DIO mice were transferred to habituation cages for at least 10 days (5 days outside and at least 5 days in the Sable Systems gas analyzer module) to acclimatize. For all in vivo compound tests for EE evaluation, mice received subcutaneous injections between 2 and 4 pm.
Energy expenditure screening: After habituation, mice were subcutaneously injected with 0.5 mg/kg peptide analogue in a volume of 2 ml/kg. Mice were injected q.a.d. (quaque altera die) and received a total of two injections. EE was evaluated and increase over vehicle was calculated as percent of mean oxygen consumption over a 30-hour period after injection. Prior to injection peptide analogues were dissolved to 0.25 mg/ml in in vivo buffer.

Row | SMILES | Loperamide-induced dysfunctional voiding (number of feces pellets during six hours) [1] | Insulin tolerance (ipITT) [2] | Glucose tolerance (ipGTT) [3] | hNK2R, Albumin binding Efficacy (%)-ovalbumin [4] | hNK2R, Albumin binding Efficacy (%)-1% human serum albumin [4] | EC50 [4] | Energy expenditure (percent of vehicle; based on 30 h average vO2) [5]
1 | COCC[C@H](NC(=O)[C@H](CC(C)C)N(C)C(=O)CNC(=O)[C@@H](NC(=O)[C@H](Cc1ccc(O)cc1)NC(=O)[C@H](CCCCN)NC(=O)[C@H](CC(=O)O)NC(=O)COCCOCCNC(=O)COCCOCCNC(=O)CC[C@H](NC(=O)CCCCCCCCCCCCCCCCC(=O)O)C(=O)O)C(C)C)C(N)=O [compound 344, *Asp;Lys;Tyr;Val;Gly;NmLeu;Metox;NH2] ({C18 diacid-γGlu-AEEA-AEEA}-DKYVG[NMeL][hSer](Me)-NH2) | improved Loperamide-induced dysfunctional voiding in a dose-dependent manner | improved both glucose and insulin tolerance | improved both glucose and insulin tolerance | 95% | 60% | 260 nM | 
2 | CCCC[C@H](NC(=O)[C@H](CC(C)C)N(C)C(=O)CNC(=O)[C@@H](NC(=O)[C@H](Cc1ccc(O)cc1)NC(=O)[C@H](CCCCN)NC(=O)[C@H](CC(=O)O)NC(=O)COCCOCCNC(=O)COCCOCCNC(=O)CC[C@H](NC(=O)CCCCCCCCCCCCCCCCC(=O)O)C(=O)O)C(C)C)C(N)=O [compound 305, *Asp;Lys;Tyr;Val;Gly;NmLeu;Nle;NH2] ({C18 diacid-γGlu-AEEA-AEEA}-DKYVG[NMeL][Nle]-NH2) |  |  |  | 83% | 45-51% | 260 nM | 9% of vehicle
